# Test results taken from the Bradley open melting point set (2014).
# Values joined by “and” are separate entries in the source; they are usually repeats but may differ in a detail not shown here. Identical values can stand only once.
row,Compound,melting point
1,O=Cc1ccccc1C=O [Phthalaldehyde],56 °C
2,O=C(O)CCCCCC(=O)O [Pimelic Acid],106 °C
3,N#Cc1ccc2c(c1)OCO2 [Piperonylonitrile],94 °C
4,COc1cc2nc(N3CCN(C(=O)c4ccco4)CC3)nc(N)c2cc1OC [Prazosin],279 °C
5,C[C@]12C=CC(=O)C=C1CC[C@@H]1[C@@H]2[C@@H](O)C[C@@]2(C)[C@H]1CC[C@]2(O)C(=O)CO [Prednisolone],240 °C
6,CCCN(CC1CC1)c1c([N+](=O)[O-])cc(C(F)(F)F)cc1[N+](=O)[O-] [Profluralin],32 °C
7,CC(=O)[C@H]1CC[C@H]2[C@@H]3CCC4=CC(=O)CC[C@]4(C)[C@H]3CC[C@]12C [Progesterone],130 °C
8,CCCOC(=O)c1ccc(O)cc1 [Propyl 4-hydroxybenzoate],96 °C
9,CN[C@@H](C)[C@@H](O)c1ccccc1 [Pseudoephedrine],118 °C
10,NC(=O)c1cnccn1 [Pyrazinamide],189 °C
11,c1cnccn1 [Pyrazine],55 °C
12,Sc1ccccn1 [Pyridine-2-thiol],129 °C
13,c1ccncc1 [Pyridine],-42 °C
14,O=C(O)c1cc(C(=O)O)c(C(=O)O)cc1C(=O)O [Pyromellitic Acid],276 °C
15,C1CCNC1 [Pyrrolidine],-60 °C
16,C=C[C@H]1CN2CC[C@H]1C[C@@H]2[C@@H](O)c1ccnc2ccc(OC)cc12 [Quinidine],174 °C
17,CC=1CCC[C@](C)(C)C=1/C=CC(C)=CC=CC(C)=CC(=O)O [Retinoic acid],190 °C
18,C[C@@H]1O[C@H](O)[C@@H](O)[C@H](O)[C@H]1O [Rhamnose],122 °C
19,Cc1cc2nc3c(=O)[nH]c(=O)nc-3n(C[C@H](O)[C@H](O)[C@H](O)CO)c2cc1C [Riboflavin],280 °C
20,CO[C@H]1C=CO[C@@]2(C)Oc3c(C)c(O)c4c(O)c(c(/C=N/N5CCN(C)CC5)c(O)c4c3C2=O)NC(=O)C(C)=CC=C[C@H](C)[C@H](O)[C@@H](C)[C@H](O)[C@H](C)[C@H](OC(C)=O)[C@@H]1C [Rifampin],183 °C
21,O=Cc1ccccc1O [Salicylaldehyde],1.5 °C
22,NC(=O)c1ccccc1O [Salicylamide],140 °C
23,O=C(O)c1ccccc1O [Salicylic acid],159 °C
24,O=C(O)CCCCCCCCC(=O)O [Sebacic acid],134 °C
25,Nc1ccc(S(=O)(=O)Nc2ncccn2)cc1 [Sulfadiazine],259 °C
26,Nc1ccc(S(=O)(=O)Nc2ccccn2)cc1 [Sulfapyridine],192 °C
27,O=C1C(CCS(=O)c2ccccc2)C(=O)N(c2ccccc2)N1c1ccccc1 (stereo unspecified) [Sulfinpyrazone],136 °C
28,CC1=C(CC(=O)O)c2cc(F)ccc2/C1=C\c1ccc([S+](C)[O-])cc1 (stereo unspecified) [Sulindac],184 °C

row,Compound,melting point
1,CS(=O)c1ccc(cc1)/C=C3c2ccc(F)cc2C(CC(=O)O)=C3C (stereo unspecified) [Sulindac],183 °C
2,CCNc1nc(NC(C)(C)C)nc(SC)n1 [Terbutryn],105 °C
3,O=C5\C=C4/C(C3CCC2(C(CCC2OC(=O)Cc1ccccc1)C3CC4)C)(C)CC5 (stereo unspecified) [Testosterone phenylacetate],129 °C
4,C[C@]12CC[C@H]3[C@@H](CCC4=CC(=O)CC[C@@]43C)[C@@H]1CC[C@@H]2OC(=O)CCc1ccccc1 [Testosterone phenylpropanoate],116 °C
5,c1ccc2cc3cc4ccccc4cc3cc2c1 [Tetracene],350 °C
6,ClC(Cl)(Cl)Cl [Tetrachloromethane],-23 °C
7,O=S(Cl)Cl [Thionyl dichloride],-104 °C
8,Cc1ccccc1 [Toluene],-93 °C
9,N#CC(Cl)(Cl)Cl [Trichloroacetonitrile],-42 °C
10,O=C(Cl)C(Cl)(Cl)Cl [Trichloroacetyl chloride],-146 °C
11,O=[O+][O-] [Trioxid-2-en-2-ium-1-ide],-193 °C
12,CN1[C@@H]2CC[C@H]1CC(=O)C2 [Tropinone],43 °C
13,C=COC(C)=O [Vinyl acetate],-100 °C
14,C/C=C\C#N [Z-crotononitrile],-72.6 °C
15,CC(=O)OC1CCC2C3CCC4CC(CC(=O)O)CCC4(C)C3CCC12C (stereo unspecified) [[17-(acetyloxy)androstan-3-yl]acetic acid],152 °C
16,"ClCc1ccccc1CCl [a,a'-dichloro-o-xylene]",56 °C
17,"ClC1(Cl)[C@]2(Cl)C(/Cl)=C(/Cl)[C@@]1(Cl)[C@@H]3[C@@H](Cl)[C@@H](Cl)C[C@H]23 [a-Chlordane, cis-Chlordane]",106 °C
18,Cl[C@H]1[C@H](Cl)[C@@H](Cl)[C@H](Cl)[C@H](Cl)[C@H]1Cl [a-hexachlorocyclohexane],159 °C
19,c1cc2c3c(cccc3c1)CC2 [acenaphthene] [listing 1 of 2 here],95 °C
20,c1cc2c3c(cccc3c1)CC2 [acenaphthene] [listing 2 of 2 here],94 °C (2×) and 95 °C
21,CC(C)=O [acetone],-94 °C
22,CC(=O)CCC(C)=O [acetonylacetone],-6 °C
23,CC(=O)Br [acetyl bromide],-96 °C
24,C=CC=O [acrolein],-87 °C
25,N#CCCCCC#N [adiponitrile],2 °C
26,C=CCN [allylamine],-88 °C
27,C=CCc1ccccc1 [allylbenzene],-50 °C

# Next, values leading:
row,melting point,Compound
1,126 °C,O[C@@H]1CC[C@H](C[C@H]1OC)/C=C(C)[C@H]2OC(=O)[C@@H]4CCCCN4C(=O)C(=O)[C@]3(O)O[C@H]([C@H](C[C@@H](C)CC(C)=C[C@@H](CC=C)C(=O)C[C@H](O)[C@H]2C)OC)[C@H](C[C@H]3C)OC [Tacrolimus]
2,210 °C,O=C(O)C(O)C(O)C(=O)O (stereo unspecified) [Tartaric acid]
3,165 °C,CN(C)[C@@H]1C(O)=C(C(N)=O)C(=O)[C@@]2(O)C(O)=C3C(=O)c4c(O)cccc4[C@@](C)(O)[C@H]3C[C@@H]12 [Tetracycline]
4,-108 °C,C1CCOC1 [Tetrahydrofuran]
5,-45 °C,C1CCOCC1 [Tetrahydropyran]
6,85 °C,Cc1nc(C)c(C)nc1C [Tetramethylpyrazine]
7,159 °C,c1ccc2c(c1)Sc1ccccc1S2 [Thianthrene]
8,210 °C,O=c1c2ccccc2sc2ccccc12 [Thiaxanthone]
9,172 °C,Cc1ccc(S(=O)(=O)NC(=O)NN2CCCCCC2)cc1 [Tolazamide]
10,201 °C,COc1cc(Cc2cnc(N)nc2N)cc(OC)c1OC [Trimethoprim]
11,-115 °C,CO[SiH](OC)OC [Trimethoxysilane]
12,197 °C,c1ccc2c(c1)c1ccccc1c1ccccc21 [Triphenylene]
13,163 °C,OC(c1ccccc1)(c1ccccc1)c1ccccc1 [Triphenylmethanol]
14,180 °C,C/C=C/C(=O)N(CCCCCCC)C(C(=O)NC(C)(C)C)c1cc2ccccc2c2ccccc12 (stereo unspecified) [Ugi product 148B]
15,-5 °C,CCCCCCCCCCCc1ccccc1 [Undecylbenzene]
16,175 °C,"C=C(C)Cn1c(N)cc(=O)n(C)c1=O [Uracil, 6-amino-3-methyl-1- (2-methylallyl)-]"
17,330 °C,O=c1cc[nH]c(=O)[nH]1 [Uracil]
18,165 °C,O=c1ccn([C@@H]2O[C@@H](CO)[C@H](O)[C@H]2O)c(=O)[nH]1 [Uridine]
19,63.5 °C,CC=1CCCC(C)(C)C=1/C=CC(C)=CC=CC(/C)=CCO [Vitamin A]
20,2 °C,Cc1c(C)c2c(c(C)c1O)CC[C@@](C)(CCC[C@H](C)CCC[C@H](C)CCCC(C)C)O2 [Vitamin E]
21,133 °C,CC(=O)C=C(C)c1ccc(-c2ccccc2)cc1 [Xenipentone]
22,212 °C,Nc1ccn([C@H]2CC[C@@H](CO)O2)c(=O)n1 [Zalcitabine]
23,109 °C,Cc1cn([C@H]2C[C@H](N=[N+]=[N-])[C@@H](CO)O2)c(=O)[nH]c1=O [Zidovudine]

row,melting point,Compound
1,145 °C,CC(c1cc2ccccc2s1)N(O)C(N)=O (stereo unspecified) [Zileuton]
2,162 °C,NS(=O)(=O)Cc1noc2ccccc12 [Zonisamide]
3,144 °C,N#CCS(=O)(=O)c1ccc(C(F)(F)F)cc1 [[4-(trifluoromethyl)phenylsulfonyl]acetonitrile]
4,67.8 °C,"CC(=O)[C@H]1C[C@@H](CC(=O)O)C1(C)C [[(1S,3S)-3-Acetyl-2,2-dimethylcyclobutyl]acetic acid]"
5,161 °C,CC(C)C1=CC2=CC[C@@H]3[C@](C)(CCC[C@@]3(C)C(=O)O)[C@H]2CC1 [abietic acid]
6,123 °C,CCCC(=O)Nc1ccc(OCC(O)CNC(C)C)c(C(C)=O)c1 (stereo unspecified) [acebutolol] [listing 1 of 2 here]
7,119 °C,CCCC(=O)Nc1ccc(OCC(O)CNC(C)C)c(C(C)=O)c1 (stereo unspecified) [acebutolol] [listing 2 of 2 here]
8,-125 °C,CC=O [acetaldehyde]
9,169 °C,CC(=O)Nc1ccc(O)cc1 [acetaminophen] [listing 1 of 2 here]
10,170 °C,CC(=O)Nc1ccc(O)cc1 [acetaminophen] [listing 2 of 2 here]
11,115 °C,CC(=O)Nc1ccccc1 [acetanilide] [listing 1 of 2 here]
12,114 °C,CC(=O)Nc1ccccc1 [acetanilide] [listing 2 of 2 here]
13,89 °C,CC(=O)SCC(Cc1ccccc1)C(=O)NCC(=O)OCc1ccccc1 (stereo unspecified) [acetorphan]
14,100 °C,CCC(C(=O)NC(=O)NC(C)=O)c1ccccc1 (stereo unspecified) [acetylpheneturide]
15,135 °C,CC(=O)Oc1ccccc1C(=O)O [acetylsalicylic acid]
16,142 °C,CC(=O)Oc1ccccc1C(=O)O [acetylsalicylicacid]
17,176 °C,CC1(c2ccccc2)OC(C(=O)O)=CC1=O (stereo unspecified) [acifran]
18,228 °C,COc1cc(C)c(C=CC(C)=CC=CC(C)=CC(=O)O)c(C)c1C [acitretin]
19,268 °C,C1C2CC3CC1CC(C2)C3 [adamantane]
20,235 °C,Nc1ncnc2c1ncn2[C@@H]1O[C@H](CO)[C@@H](O)[C@H]1O [adenosine]
21,153 °C,O=C(O)CCCCC(=O)O [adipic_acid]
22,103 °C,OC[C@@H](O)[C@@H](O)[C@@H](O)CO [adonitol]
23,208 °C,CCCSc1ccc2[nH]c(NC(=O)OC)nc2c1 [albendazole]
